From patent US20240368122A1, “JAK2 INHIBITORS AND METHODS OF USE THEREOF” (RELAY THERAPEUTICS, INC., priority 2021, published 2024)
Read-outs that look alike come from different tables or passages of the source.

Legend:
[1] = target: T1, JAK2 JH2 WT (V536-D812) [W659A, W777A, F794H solubilizing mutations] (Homo sapiens, UniProt O60674, F794H/W659A/W777A); test: Surface Plasmon Resonance (SPR) binding assay, JAK2 JH2 domain
T1 construct: **JAK2 JH2 WT (V536-D812) [W659A, W777A, F794H solubilizing mutations]; C-thrombin-avi-His6; thrombin cleavage site (C); His6 (C); purchased Biortus
Description: Selected compounds of the present disclosure were tested in a Surface Plasmon Resonance (SPR) Assay to measure their binding kinetics and affinity for proteins of interest.
Prepare buffer: 50 mM HEPES pH 7.5, 150 mM NaCl, 0.05% (v/v) Tween, and 10% (v/v) glycerol were combined and pH was adjusted to 7.5, then filtered. 5 mM DTT, was added, and buffer without DMSO was reserved for compound resuspension. 2% (v/v) DMSO was added for assay buffer, and separately 1% DMSO was used to make buffer for resuspending compounds.
Prepare compounds: Using a Bravo liquid handler, 99 μL of 1% (v/v) DMSO assay buffer was added to 1 μL compounds in DMSO.
Run 8K Method: Biotin CAPture (CAP) chip surface was regenerated prior to run by: Inserting CAP chip into Biacore 8K, prime machine with assay buffer with 2% (v/v) DMSO; Setting instrument temperature to 20° C.; Conditioning surface with NaOH/GdnHCl reagents from CAP chip kit (60 seconds, 10 μL/min); and Capturing oligo-Streptavidin (SA) reagent from CAP kit (600 seconds, 1 μL/min), expected capture ˜2500 RU. JAK2 JH1 or JH2 protein was immobilized by preparing a sample of 0.5 uM JH1 or 0.4 uM JH2 protein diluted in assay buffer without DMSO and supplemented with 10 uM of a selected compound of the invention as a stabilizer (370 seconds, 5 uL/min), expected capture ˜1000 RU. Remaining biotin sites on SA were blocked with 1 uM biotin (30 seconds, 20 uL/min), then equilibrated for 1800 seconds at 100 uL/min. Compounds being assayed were run in single cycle kinetics: 4 doses with a top concentration of 5 uM (JH1) or 500 nM (JH2), dilution factor of 3, at 20° C., for a contact time of 60 seconds, and a dissociation time of 300 seconds (JH1) or 1200 seconds (JH2), at a flow rate of 30 uL/min. The surface was completely regenerated after each compound is run, and JH1 or JH2 protein was immobilized fresh prior to each new compound. Data were fitted kinetically with 1:1 binding model using Biacore Insight Evaluation Software.

[2] = tested on: TF1 JAK2 V617F STAT3 reporter; test: Cellular TF1 STAT3 assay (luciferase reporter), JAK2 V617F; type: cell-based; conditions: read-out: Cell PD-TF1 JAK2 V617F STAT3 (IC50)
Description: (§1) Selected compounds of the present disclosure were tested in a Cellular TF1 STAT3 or STAT5 assay, to measure the degree of JAK2-mediated STAT3 or STAT5 phosphorylation, respectively. TF1 cells (immortalized erythroleukemia line) expressing either wildtype or V617F mutant JAK2 with a luciferase reporter were used.
(§2) Cell culture: Cells were put into antibiotic selection (1 ug/ml puro+500 ug/ml Geneticin) when first thawed then maintained in growth media without antibiotics. Cells were maintained in exponential growth phase, between 0.02-1 E6 cells/ml.
(§3) Compound preparation: Compounds were screened as 10-point dose response curves 1:3 dilutions. DMSO is used as the vehicle control. All wells were normalized to the same final DMSO concentration. Compounds were pre-spotted onto 384 well plates using an Echo acoustic dispenser, 50 nL of 1000× (10 mM top concentration) DMSO stock/well. Each compound is run in triplicate plates.
(§4) Cell plating: Cells were counted using Vi-Cell XR, then cells were spun down and resuspended in growth media to 200,000 cells/ml. Cells were added to plates containing compound. 10,000 cells/well in 50 ul volume using a Biomek liquid handler. Plates were briefly mixed on a shaker for 1 minute at 2500 rpm then placed in a 37° C., 5% CO2 incubator overnight for 18-20 hrs.
(§5) Measuring luciferase activity: ONE-glo reagent was brought to room temperature, and 25 μL of ONE-glo assay reagent was added to each well using Biomek liquid handler. The plates were incubated for 10 minutes at room temperature, then luminescence was measured on an Envision plate reader.

[3] = tested on: TF1 JAK2 V617F STAT5 reporter; test: Cellular TF1 STAT5 assay (luciferase reporter), JAK2 V617F; type: cell-based; conditions: read-out: Cell PD TF1 V617F STAT5 (IC50)
Description: as §1, §2, §3, §4, §5

[4] = Homo sapiens, TF-1, TF1 cells, JAK2 V617F

T1 sequence (O60674 536-812 W659A/W777A/F794H): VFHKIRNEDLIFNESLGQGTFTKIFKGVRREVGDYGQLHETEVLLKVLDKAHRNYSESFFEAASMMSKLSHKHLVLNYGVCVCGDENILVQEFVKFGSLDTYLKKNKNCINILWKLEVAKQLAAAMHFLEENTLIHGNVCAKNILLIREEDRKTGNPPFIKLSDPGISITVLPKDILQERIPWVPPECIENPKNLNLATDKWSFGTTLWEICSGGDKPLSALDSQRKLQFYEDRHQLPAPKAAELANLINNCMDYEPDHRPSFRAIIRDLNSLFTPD

Kd ([1]; SPR, JAK2 JH2 domain) [nM]	IC50 ([2]; TF1 JAK2 V617F) [nM]	IC50 ([3]; TF1 JAK2 V617F) [nM]	Kd [1] [nM]	IC50 [2, 4] [nM]	IC50 [3, 4] [nM]	Compound
0.01 to 10	50 to 500	500 to 5000	–	–	–	CNC(=O)c1nnc(NC(=O)C2CC2)cc1Nc1cccc(-c2cnn(C3CN([C@@H](C)c4ccccn4)C3)c2)c1OC (single isomer, unassigned) [Compound 162]
0.01 to 10	500 to 5000	5000 to 100000	–	–	–	CNC(=O)c1nnc(NC(=O)C2CC2)cc1Nc1cccc(-c2cnn(C3CN([C@H](C)c4ccccn4)C3)c2)c1OC (single isomer, unassigned) [Compound 163]
–	–	–	0.01 to 10	500 to 5000	500 to 5000	CNC(=O)c1nnc(NC(=O)C2CC2)cc1Nc1cccc(-c2cnn(C3CN([C@H](C)c4cccc(C#N)n4)C3)c2)c1OC (single isomer, unassigned) [Compound 283]
–	–	–	0.01 to 10	50 to 500	50 to 500	CNC(=O)c1nnc(NC(=O)C2CC2)cc1Nc1cccc(-c2cnn(C3CN([C@@H](C)c4cccc(C#N)n4)C3)c2)c1OC (single isomer, unassigned) [Compound 286]
–	–	–	0.01 to 10	500 to 5000	500 to 5000	CNC(=O)c1nnc(NC(=O)C2CC2)cc1Nc1cccc(-c2cnn([C@H]3CCN(Cc4ccccn4)C3)c2)c1OC (single isomer, unassigned) [Compound 333]
–	–	–	0.01 to 10	500 to 5000	500 to 5000	CNC(=O)c1nnc(NC(=O)C2CC2)cc1Nc1cccc(-c2cnn([C@@H]3CCN(Cc4ccccn4)C3)c2)c1OC (single isomer, unassigned) [Compound 334]
–	–	–	0.01 to 10	500 to 5000	500 to 5000	CNC(=O)c1nnc(NC(=O)C2CC2)cc1Nc1cccc(-c2cnn([C@H]3C[C@H]([C@@H](OC)c4ccccn4)C3)c2)c1OC (single isomer, unassigned) [Compound 346]
–	–	–	10 to 50	500 to 5000	500 to 5000	CNC(=O)c1nnc(NC(=O)C2CC2)cc1Nc1cccc(-c2cnn([C@H]3C[C@@H]([C@H](OC)c4ccccn4)C3)c2)c1OC (single isomer, unassigned) [Compound 350]
0.01 to 10	–	–	–	500 to 5000	500 to 5000	CNC(=O)c1nnc(NC(=O)C2CC2)cc1Nc1cccc(-c2cnn([C@H]3C[C@H]([C@@H](O)c4ccccn4)C3)c2)c1OC (single isomer, unassigned) [Compound 396]
0.01 to 10	–	–	–	500 to 5000	5000 to 100000	CNC(=O)c1nnc(NC(=O)C2CC2)cc1Nc1cccc(-c2cnn([C@H]3C[C@H]([C@H](O)c4ccccn4)C3)c2)c1OC (single isomer, unassigned) [Compound 397]
0.01 to 10	–	–	–	500 to 5000	500 to 5000	CNC(=O)c1nnc(NC(=O)C2CC2)cc1Nc1cccc(-c2cnn([C@H]3C[C@@H]([C@@H](O)c4ccccn4)C3)c2)c1OC (single isomer, unassigned) [Compound 398]
0.01 to 10	–	–	–	500 to 5000	50 to 500	CNC(=O)c1nnc(NC(=O)C2CC2)cc1Nc1cccc(-c2cnn([C@H]3C[C@@H]([C@H](O)c4ccccn4)C3)c2)c1OC (single isomer, unassigned) [Compound 399]

The next lines start with the molecule.

Compound	Kd ([1]; SPR, JAK2 JH2 domain) [nM]	IC50 ([2]; TF1 JAK2 V617F) [nM]	IC50 ([3]; TF1 JAK2 V617F) [nM]	Kd [1] [nM]	IC50 [2, 4] [nM]	IC50 [3, 4] [nM]
CNC(=O)c1nnc(NC(=O)C2CC2)cc1Nc1cccc(-c2ccc(C(=O)N(C)[C@@H](C)c3ccn(C)n3)nc2)c1OC (single isomer, unassigned) [Compound 160]	0.01 to 10	500 to 5000	500 to 5000	–	–	–
CNC(=O)c1nnc(NC(=O)C2CC2)cc1Nc1cccc(-c2ccc(C(=O)N(C)[C@H](C)c3ccn(C)n3)nc2)c1OC (single isomer, unassigned) [Compound 161]	0.01 to 10	500 to 5000	500 to 5000	–	–	–
CNC(=O)c1nnc(NC(=O)C2CC2)cc1Nc1cccc(-c2ccc(C(=O)N(C)[C@H](C)c3cc(C#N)ccn3)nc2)c1OC (single isomer, unassigned) [Compound 181]	0.01 to 10	500 to 5000	500 to 5000	–	–	–
CNC(=O)c1nnc(NC(=O)C2CC2)cc1Nc1cccc(-c2ccc(C(=O)N(C)CC3=NO[C@@H]4CCCC[C@H]34)nc2)c1OC (single isomer, unassigned) [Compound 193]	0.01 to 10	50 to 500	50 to 500	–	–	–
CNC(=O)c1nnc(NC(=O)C2CC2)cc1Nc1cccc(-c2ccc(C(=O)N(C)CC3=NO[C@H]4CCCC[C@@H]34)nc2)c1OC (single isomer, unassigned) [Compound 194]	0.01 to 10	500 to 5000	500 to 5000	–	–	–
CNC(=O)c1nnc(NC(=O)C2CC2)cc1Nc1cccc(-c2ccc(C(=O)N(C)C[C@H]3CCCC3(F)F)cc2)c1OC (single isomer, unassigned) [Compound 206]	–	–	–	10 to 50	5000 to 100000	5000 to 100000
CNC(=O)c1nnc(NC(=O)C2CC2)cc1Nc1cccc(-c2ccc(C(=O)N(C)C[C@H]3CCS(=O)(=O)C3)nc2)c1OC (single isomer, unassigned) [Compound 207]	–	–	–	0.01 to 10	5000 to 100000	5000 to 100000
CNC(=O)c1nnc(NC(=O)C2CC2)cc1Nc1cccc(-c2ccc(C(=O)N(C)C[C@@H]3CCCC3(F)F)cc2)c1OC (single isomer, unassigned) [Compound 208]	–	–	–	0.01 to 10	5000 to 100000	5000 to 100000
CNC(=O)c1nnc(NC(=O)C2CC2)cc1Nc1cccc(-c2ccc(C(=O)N(C)C[C@@H]3CCS(=O)(=O)C3)nc2)c1OC (single isomer, unassigned) [Compound 209]	–	–	–	10 to 50	5000 to 100000	5000 to 100000
CNC(=O)c1nnc(NC(=O)C2CC2)cc1Nc1cccc(-c2ccc(C(=O)N(C)C[C@@H]3CCCC3(F)F)nc2)c1OC (single isomer, unassigned) [Compound 225]	–	–	–	10 to 50	5000 to 100000	5000 to 100000
CNC(=O)c1nnc(NC(=O)C2CC2)cc1Nc1cccc(-c2ccc(C(=O)N(C)C[C@H]3CCCC3(F)F)nc2)c1OC (single isomer, unassigned) [Compound 226]	–	–	–	10 to 50	5000 to 100000	5000 to 100000
CNC(=O)c1nnc(NC(=O)C2CC2)cc1Nc1cccc(C(=O)N[C@@H](C)C2CN(Cc3ccccn3)C2)c1OC (single isomer, unassigned) [Compound 245]	–	–	–	50 to 500	5000 to 100000	5000 to 100000
CNC(=O)c1nnc(NC(=O)C2CC2)cc1Nc1cccc(C(=O)N[C@H](C)C2CN(Cc3ccccn3)C2)c1OC (single isomer, unassigned) [Compound 246]	–	–	–	50 to 500	5000 to 100000	5000 to 100000
CNC(=O)c1nnc(NC(=O)C2CC2)cc1Nc1cccc(-c2cnn([C@@H]3CCN(Cc4cccc(C#N)n4)C3)c2)c1OC (single isomer, unassigned) [Compound 318]	–	–	–	0.01 to 10	500 to 5000	500 to 5000
CNC(=O)c1nnc(NC(=O)C2CC2)cc1Nc1cccc(-c2cn([C@H]3CN(Cc4cccc(C#N)n4)[C@@H]3C)nn2)c1OC (stereo in doubt) [Compound 234]	–	–	–	0.01 to 10	50 to 500	50 to 500
